According to patent publication US7732442B2 (Ono Pharmaceutical Co., Ltd., priority 2003, dated 2010):

Target: T1, human CCR4 (Homo sapiens, UniProt P51679)
T1 construct: expressed in transfected cells; host or cells: CHO-dhfr(-)
T1 sequence (P51679 1-360): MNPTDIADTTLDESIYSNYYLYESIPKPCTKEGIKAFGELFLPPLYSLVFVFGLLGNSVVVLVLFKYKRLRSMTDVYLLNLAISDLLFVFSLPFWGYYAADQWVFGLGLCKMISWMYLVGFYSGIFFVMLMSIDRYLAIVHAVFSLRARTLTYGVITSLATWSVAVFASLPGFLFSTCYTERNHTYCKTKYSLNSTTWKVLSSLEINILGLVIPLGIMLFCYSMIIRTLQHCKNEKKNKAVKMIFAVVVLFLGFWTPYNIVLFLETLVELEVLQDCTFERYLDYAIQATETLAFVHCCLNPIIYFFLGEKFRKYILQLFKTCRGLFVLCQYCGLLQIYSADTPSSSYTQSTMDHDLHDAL
Test: Inhibition test on activity of MDC mediated by CCR4 (MDC-induced transient increase of Ca ions) in CCR4/CHO cells
Type: cell-based
Details: in the presence of 0.3% BSA; human MDC 10 nM; CCR4/CHO cell; read-out: IC50 value (inhibition of Ca2+ transient increase by MDC)
Procedure: Human bone marrow cell cDNA was prepared using Marathon cDNA amplification kit (manufactured by Clontech). PCR primers hCCR4XbaI-F1 (SEQ ID NO:1) and hCCR4XbaI-R1 (SEQ ID NO:2) were designed based on the sequence of GenBankX85740.
Using the human bone marrow cell cDNA as the template and using Ex Taq (manufactured by Takara), a PCR reaction (2 minutes at 95° C.→[30 seconds at 95° C., 45 seconds at 60° C., 1 minute at 72° C.]×35 times) was carried out. The thus amplified PCR product was subjected to 1% agarose gel electrophoresis, purified using QIAquick Gel Extraction Kit (manufactured by QUIAGEN) and then digested with a restriction enzyme XbaI. […]
The thus established human CCR4 stably overexpressing CHO cell (CCR4/CHO cell) was suspended in Ham's F-12 medium and FBS (10%) and dispensed into a 96-well plate at 3.0×10^4 cells/well. […] Transient increase in the intracellular Ca^2+ concentration induced by the human MDC was measured using a Ca^2+ detector for 96-well (manufactured by Hamamatsu Photonics), and inhibition ratio (%) of the test compound was calculated by the following equation: Inhibition ratio=[(Ec−Ea)/Ec]×100 • Ec: measured value of Ca^2+ transient increase by MDC; and • Ea: measured value of Ca^2+ transient increase by MDC when a test compound was added […]

Row | SMILES | IC50 [nM]
1 | COc1ccc(COc2cc(Br)cnc2NS(=O)(=O)c2ccc(C)cc2)cc1OCCN(C)C [Example 2(2), N-[5-bromo-3-({3-[2-(dimethylamino)ethoxy]-4-methoxybenzyl}oxy)pyridin-2-yl]-4-methylbenzenesulfonamide] | 230
2 | Cc1cnc(NS(=O)(=O)c2ccccc2Cl)c(OCc2ccc(Cl)c(OCC3CCN(C)CC3)c2)n1 [Example 6(1)] | 80
